Each compound was assayed against T1, HDAC8 (Homo sapiens, UniProt Q9BY41) (assay: Covalent labeling, tryptic digestion and MS/MS). Settings: not given.
T1 construct: one additional N-terminal residue 'H' (His) (N)
T1 sequence (Q9BY41 1-377): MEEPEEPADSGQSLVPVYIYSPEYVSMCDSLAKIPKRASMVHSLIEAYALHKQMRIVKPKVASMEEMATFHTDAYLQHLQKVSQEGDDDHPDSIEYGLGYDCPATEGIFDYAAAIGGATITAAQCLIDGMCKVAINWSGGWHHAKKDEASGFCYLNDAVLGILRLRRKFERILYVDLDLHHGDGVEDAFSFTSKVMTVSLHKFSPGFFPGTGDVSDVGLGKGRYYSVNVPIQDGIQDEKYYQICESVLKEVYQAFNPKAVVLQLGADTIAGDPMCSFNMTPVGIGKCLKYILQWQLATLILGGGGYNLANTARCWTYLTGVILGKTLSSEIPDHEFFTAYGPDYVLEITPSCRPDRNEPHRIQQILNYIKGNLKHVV
Type: binding
Experimental: The covalent labeling procedure was conducted as described previously with slight modifications.[31] First, 25 μM HDAC8 was treated with 250 μM covalent probes for 1 h at 30 °C in the assay buffer described above. The protein was then precipitated by the addition of 10% TCA and then centrifuged at 18000g for 15 min. The supernatant was removed, and the dry pellet was diluted in buffer [50 mM NH4HCO3 (pH 7.8)]. After the fragment labeling was completed, 50 μL of the sample and 10 μL of a 0.2% (w/v) RapiGest SF (Waters, Milford, MA) solution buffered with 50 mM ammonium bicarbonate were mixed (pH 7.8), 3.3 μL of 45 mM DTT in 100 mM NH4HCO3 was added to reduce artificial oxidized cysteine residues, and the mixture was kept at 37.5 °C for 30 min. After the sample was cooled to room temperature, reduction was quenched, and nascent thiols were alkylated by adding 4.16 μL of 100 mM iodoacetamide in 100 mM NH4HCO3. Samples were placed in the dark at room temperature for 30 min. The reduced and alkylated protein was then digested with 10 μL (1 mg/mL) of trypsin (the enzyme:protein ratio was 1:10) (Sigma, St. Louis, MO). The sample was incubated at 37 °C overnight. To degrade the surfactant, 7 μL of a formic acid (500 mM) solution was added to the digested protein sample, a final concentration of 40 mM (pH ≈2) was obtained, and the mixture was further incubated at 37 °C for 45 min. For LC-MS analysis, the acid-treated sample was centrifuged for 5 min at 13 000 rpm and the supernatant was pipetted into a microvial.
For procedure A, an AB Sciex 6500 QTRAP hybrid triple quadruple linear ion trap mass spectrometer, equipped with a Turbo V ion source in electrospray mode and an Agilent 1100 Binary Pump HPLC system (Agilent Technologies, Waldbronn, Germany) consisting of an autosampler, was used for LC-MS/MS analysis. Data acquisition and processing were performed using Analyst version 1.6.2 (AB Sciex Instruments). Chromatographic separation was achieved by using the Discovery BIO Wide Pore C-18-5 column (250 mm × 2.1 mm, 5 μm, 300 Å). The sample was eluted with a gradient of solvent A (0.1% formic acid in water) and solvent B (0.1% formic acid in ACN). The flow rate was set to 0.2 mL min^–1. The initial process for separation was as follows: 5% B for 7 min, followed by a linear gradient to 90% B by […], 90% B from 60 to 64 min, and from 64 to 65 min back to the initial condition with 5% eluent B retained for 10 min. The injection volume was 10 μL. An information-dependent acquisiton (IDA) LC-MS/MS experiment was used to identify the modified tryptic peptide fragments. An enhanced MS scan (EMS) was used as a survey scan, and an enhanced product ion scan (EPI) was the dependent scan. Precursor ion selection criteria: ions greater than m/z 400, which exceeds 106 counts, exclude former target ions for 30 s after two occurrence(s). The scan rates in both survey and dependent scans were 1000 Da/s. Nitrogen was used as the nebulizer gas (GS1), heater gas (GS2), and curtain gas with the optimum values set at 50, 40, and 40 (arbitrary units), respectively. The source temperature was 350 °C, and the ion spray voltage was set at 5000 V. The declustering potential value was set to 150 V. The collision energy in EPI experiments was set to rolling collision energy mode, where the actual value was set on the basis of the mass and charge state of the selected ion. GPMAW version 4.2 was used to analyze the large number of MS-MS spectra and identify the modified tryptically digested peptides.
For procedure B, to obtain more precise information about the structure, samples were further analyzed by a Triple TOF 5600+ hybrid Quadrupole-TOF LC/MS/MS system (Sciex) equipped with a DuoSpray IonSource coupled with a Shimadzu Prominence LC20 UFLC system consisting of a quaternary pump, an autosampler, and a thermostated column compartment. Data were acquired and processed using Analyst TF version 1.7.1 (AB Sciex Instruments). […]

covalent labeling of HDAC8 cysteine by tryptic digestion and MS/MS | SMILES
proved Cys153 covalent labeling | C#Cc1c[n+](C)ccc1NC(=O)CC(=O)N1Cc2ccccc2C1.[I-] [compound 3, 3-Ethynyl-4-[3-(isoindolin-2-yl)-3-oxopropanamido]-1-methylpyridin-1-ium Iodide]

Same assay, conditions: 25 μM HDAC8, 250 μM probe, 1 h

MS/MS: modified HDAC8 peptide [148-165] | MS/MS: modified HDAC8 peptide [241-250] | MS/MS: modified HDAC8 peptide [33-83] | MS/MS: modified HDAC8 peptide [260-287] | MS/MS: modified HDAC8 peptide [1-34] | MS/MS: modified HDAC8 peptide [327-357] | SMILES
modified | modified |  |  |  |  | C[n+]1ccccc1I [A3+]
modified | modified | modified | modified |  |  | C[n+]1ccc(I)cc1 [C3+]
modified | modified |  |  | modified |  | C#Cc1cc[n+](C)cc1 [C6+]
modified | modified |  |  | modified |  | C[n+]1cccnc1Cl [D1+]
modified | modified |  |  |  |  | C[n+]1cccnc1Br [D2+]
modified | modified |  | modified | modified |  | C[n+]1cccnc1I [D3+]
 |  |  |  | modified |  | C#Cc1nccc[n+]1C [D6+]
modified |  |  | modified | modified |  | C[n+]1cncc(Br)c1 [F2+]
modified |  |  | modified | modified | modified | C[n+]1cncc(I)c1 [F3+]
modified |  |  | modified | modified |  | C#Cc1c[n+](C)ccn1 [G6+]
